The numbers were not newly measured in patent US6403361B1, “Enzymatic method for modification of recombinant polypeptides” (Restoragen, Inc., priority 1993, dated 2002), which cites them from elsewhere.

As usually defined, the pKd is the negative decadic logarithm of the Kd, by convention in mol/L.

In one series the target is T1, Adenosine deaminase (Homo sapiens, UniProt P00813).
T1 sequence (P00813 1-363): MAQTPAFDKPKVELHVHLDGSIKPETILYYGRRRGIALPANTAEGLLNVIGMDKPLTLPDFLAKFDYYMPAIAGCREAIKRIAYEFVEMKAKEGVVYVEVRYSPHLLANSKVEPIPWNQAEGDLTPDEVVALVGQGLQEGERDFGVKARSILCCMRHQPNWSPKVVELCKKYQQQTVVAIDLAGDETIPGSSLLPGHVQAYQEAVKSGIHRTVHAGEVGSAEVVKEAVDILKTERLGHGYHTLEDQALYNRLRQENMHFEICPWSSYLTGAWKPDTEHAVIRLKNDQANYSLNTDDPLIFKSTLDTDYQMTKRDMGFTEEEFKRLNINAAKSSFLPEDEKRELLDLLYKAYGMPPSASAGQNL
To be noted: E is times ten to the negative exponent.

A further series has as its target T2, Cholesterol esterase (Homo sapiens, UniProt P19835).
T2 sequence (P19835 21-753): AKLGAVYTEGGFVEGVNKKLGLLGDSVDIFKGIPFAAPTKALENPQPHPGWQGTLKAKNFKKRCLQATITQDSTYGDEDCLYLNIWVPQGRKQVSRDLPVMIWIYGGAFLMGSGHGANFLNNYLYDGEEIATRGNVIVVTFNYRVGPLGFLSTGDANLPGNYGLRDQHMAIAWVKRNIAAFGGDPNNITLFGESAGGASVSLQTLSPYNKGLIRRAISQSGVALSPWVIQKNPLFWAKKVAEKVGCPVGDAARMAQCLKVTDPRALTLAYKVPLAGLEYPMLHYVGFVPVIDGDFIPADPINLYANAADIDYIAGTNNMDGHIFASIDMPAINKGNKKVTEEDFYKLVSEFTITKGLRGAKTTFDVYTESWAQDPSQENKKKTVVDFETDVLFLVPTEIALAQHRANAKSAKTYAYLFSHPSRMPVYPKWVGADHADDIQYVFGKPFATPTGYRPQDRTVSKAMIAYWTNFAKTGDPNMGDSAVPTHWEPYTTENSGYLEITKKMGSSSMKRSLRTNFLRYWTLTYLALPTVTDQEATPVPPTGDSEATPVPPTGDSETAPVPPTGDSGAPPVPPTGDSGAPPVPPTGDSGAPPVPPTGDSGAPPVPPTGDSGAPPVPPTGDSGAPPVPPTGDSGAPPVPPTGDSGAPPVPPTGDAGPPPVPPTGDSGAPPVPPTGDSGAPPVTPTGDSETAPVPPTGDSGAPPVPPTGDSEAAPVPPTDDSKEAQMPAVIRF
The settings on record: Ref. 8 (Sutton et al., BBRC, 134, 386-392 (1986)); E is times ten to the negative exponent.

pKd: −log10 of the molar value. Like-named read-outs stand apart in the source and are kept apart here.

Turning to `OC[C@H]1O[C@@H](n2cnc3c2N=CNC[C@H]3O)[C@H](O)[C@@H]1O` [Coformycin], the negative logarithm of the Kd (pKd) on Adenosine deaminase (Ref. 1 (Cha et al., Biochemical Pharm., 24, 2187-2197)) was greater than 9.92.
Borinic acid: the pKd at Cholesterol esterase is 10.00.
Regarding `CCCCCCC(C(C)O)n1cnc2c(N)ncnc21` (stereo not drawn) [erythro-9-(2-hydroxy-3 nonyl) adenine], on Adenosine deaminase (Ref. 2 (Agarwal et al., Biochemical Pharm., 26, 354-367 (1977))), the negative-log Kd (pKd) is 8.80.
